{"source": "paper PMC12084410", "about": "“Reconstruction of the ancient cyanobacterial proto-circadian clock system KaiABC” (The EMBO Journal, 2025)", "key": {"KaiC [1]": {"target": "T1, KaiC (Synechococcus elongatus, UniProt Q79PF4)", "T1 construct": "full-length (CI 1-268, CII 269-519), pGEX-6P-1 (GST) in E. coli BL21, purified, hexamer", "T1 sequence (Q79PF4 1-519)": "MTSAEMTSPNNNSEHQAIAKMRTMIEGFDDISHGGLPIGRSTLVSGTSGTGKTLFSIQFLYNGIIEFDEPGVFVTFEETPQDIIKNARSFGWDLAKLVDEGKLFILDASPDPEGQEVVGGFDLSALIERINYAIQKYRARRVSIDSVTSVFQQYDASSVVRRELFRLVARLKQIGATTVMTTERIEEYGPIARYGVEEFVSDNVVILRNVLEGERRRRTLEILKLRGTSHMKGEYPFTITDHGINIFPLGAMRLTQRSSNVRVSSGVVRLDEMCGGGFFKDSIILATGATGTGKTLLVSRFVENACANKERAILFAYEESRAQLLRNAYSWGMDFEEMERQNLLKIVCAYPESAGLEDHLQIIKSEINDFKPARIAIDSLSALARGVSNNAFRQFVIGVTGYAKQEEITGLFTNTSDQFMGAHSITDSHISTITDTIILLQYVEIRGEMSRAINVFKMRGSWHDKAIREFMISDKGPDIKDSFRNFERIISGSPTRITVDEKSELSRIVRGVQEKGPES", "test": "HPLC ADP production (ATPase)", "assay_type": "biochemical", "settings": "1 mM ATP, 5 mM MgCl2, 150 mM NaCl, pH 8.0, 25 C"}, "KaiC [2]": {"target": "T2, KaiC (Synechococcus elongatus, UniProt Q79PF4, S229T/T240N)", "T2 construct": "full-length (CI 1-268, CII 269-519), pGEX-6P-1 (GST) in E. coli BL21, purified, hexamer", "T2 sequence (Q79PF4 whole entry S229T/T240N)": "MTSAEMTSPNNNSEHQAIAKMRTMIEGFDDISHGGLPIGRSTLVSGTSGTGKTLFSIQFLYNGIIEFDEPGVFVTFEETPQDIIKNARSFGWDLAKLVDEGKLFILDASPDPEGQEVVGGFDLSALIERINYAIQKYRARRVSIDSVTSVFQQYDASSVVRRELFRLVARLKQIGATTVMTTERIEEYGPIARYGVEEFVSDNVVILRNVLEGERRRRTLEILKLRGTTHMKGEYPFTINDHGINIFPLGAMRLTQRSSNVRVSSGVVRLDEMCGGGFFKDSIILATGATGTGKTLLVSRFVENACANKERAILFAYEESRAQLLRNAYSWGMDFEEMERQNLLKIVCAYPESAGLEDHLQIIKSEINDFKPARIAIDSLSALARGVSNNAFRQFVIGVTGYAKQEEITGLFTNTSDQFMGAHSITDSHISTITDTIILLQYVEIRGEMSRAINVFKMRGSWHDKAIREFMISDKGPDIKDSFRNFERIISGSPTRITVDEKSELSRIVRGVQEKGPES", "test": "HPLC ADP production (ATPase)", "assay_type": "biochemical", "settings": "1 mM ATP, 5 mM MgCl2, 150 mM NaCl, pH 8.0, 25 C"}}}
{"smiles": "Nc1ncnc2c1ncn2[C@@H]1O[C@H](COP(=O)(O)OP(=O)(O)OP(=O)(O)O)[C@@H](O)[C@H]1O", "note": "[ATP]", "values": [{"measurement": "HPLC ADP production (ATPase)", "setting": "KaiC [1]", "value": "ATPase activity of anKaiC was significantly lower than that of KaiC"}, {"measurement": "HPLC ADP production (ATPase)", "setting": "KaiC [2]", "value": "the activity of ATP hydrolysis was significantly repressed in the double mutants"}]}
